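Growth conditions: 96-well plates. Treatment: test compound, 48 hours, 5 concentrations. Analysis: linear interpolation between bracketing concentrations; unreached endpoints set to highest concentration. Abbreviation: GI50, concentration required for 50% inhibition of growth.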 Calls of active or inactive are those of the source. Rule as the data show it: active = GI50 up to about 1.1 µM and inactive = higher.
Columns and labels:
Assay in all cases: NCI anticancer screen, dose series, 48 h
HT-29 = system: HT-29
MCF7 = system: MCF7
HOP-62 = system: HOP-62
ACHN = system: ACHN
OVCAR-3 = system: OVCAR-3
COLO 205 = system: COLO 205
SR = system: SR
BT-549 = system: BT-549
A549 = system: A549
MDA-MB-231 = system: MDA-MB-231
HL-60 = system: HL-60
K562 = system: K562
786-0 = system: 786-0
MDA-MB-435 = system: MDA-MB-435
SW-620 = system: SW-620
SK-MEL-28 = system: SK-MEL-28
OVCAR-8 = system: OVCAR-8
RXF 393 = system: RXF 393
SNB-75 = system: SNB-75

SMILES | GI50 (HT-29) | GI50 (MCF7) | GI50 (HOP-62) | GI50 (ACHN) | GI50 (OVCAR-3) | GI50 (COLO 205) | GI50 (SR) | GI50 (BT-549) | GI50 (A549) | GI50 (MDA-MB-231) | GI50 (HL-60) | GI50 (K562) | GI50 (786-0) | GI50 (MDA-MB-435) | GI50 (SW-620) | GI50 (SK-MEL-28) | GI50 (OVCAR-8) | GI50 (RXF 393) | GI50 (SNB-75)
CS(=N)(=O)CCC(N)P(=O)(O)O (centres undefined) | > 100 µM (inactive) | > 100 µM (inactive) | > 100 µM (inactive) | > 100 µM (inactive) | > 100 µM (inactive) | > 100 µM (inactive) | > 100 µM (inactive) | > 100 µM (inactive) | > 100 µM (inactive) | > 100 µM (inactive) | > 100 µM (inactive) | > 100 µM (inactive) | > 100 µM (inactive) | > 100 µM (inactive) | > 100 µM (inactive) | > 100 µM (inactive) | > 100 µM (inactive) | > 100 µM (inactive) | –
COc1ccc(/C=C\c2cc(OC)c(OC)c(OC)c2)cc1OC(=O)CCC(=O)O | 0.774 µM (active) | < 0.01 µM (active) | < 0.0001 µM (active) | < 0.0001 µM (active) | < 0.0001 µM (active) | 0.857 µM (active) | < 0.0001 µM (active) | 25.8 µM (inactive) | 0.000655 µM (active) | < 0.0001 µM (active) | < 0.0001 µM (active) | < 0.0001 µM (active) | 0.000263 µM (active) | < 0.0001 µM (active) | < 0.0001 µM (active) | < 0.01 µM (active) | < 0.01 µM (active) | – | 43 µM (inactive)
COc1ccc2c(=O)c3c([nH]c2c1)OCC3=O | > 100 µM (inactive) | > 100 µM (inactive) | > 100 µM (inactive) | > 100 µM (inactive) | – | > 100 µM (inactive) | > 100 µM (inactive) | > 100 µM (inactive) | – | > 100 µM (inactive) | > 100 µM (inactive) | 36.5 µM (inactive) | > 100 µM (inactive) | > 100 µM (inactive) | > 100 µM (inactive) | > 100 µM (inactive) | > 100 µM (inactive) | > 100 µM (inactive) | > 100 µM (inactive)
NC(=O)N/N=C(\Cc1cc(=O)oc2cc(O)ccc12)C(=O)Nc1ccccc1C(N)=O | > 100 µM (inactive) | > 100 µM (inactive) | > 100 µM (inactive) | > 100 µM (inactive) | > 100 µM (inactive) | > 100 µM (inactive) | – | > 100 µM (inactive) | > 100 µM (inactive) | > 100 µM (inactive) | > 100 µM (inactive) | – | > 100 µM (inactive) | > 100 µM (inactive) | > 100 µM (inactive) | > 100 µM (inactive) | > 100 µM (inactive) | > 100 µM (inactive) | > 100 µM (inactive)
COC(CN(C)C(=O)C(C)NC(=O)c1ccccc1)OC (centres undefined) | > 100 µM (inactive) | > 100 µM (inactive) | – | > 100 µM (inactive) | – | > 100 µM (inactive) | > 100 µM (inactive) | > 100 µM (inactive) | > 100 µM (inactive) | > 100 µM (inactive) | – | > 100 µM (inactive) | > 100 µM (inactive) | > 100 µM (inactive) | > 100 µM (inactive) | – | > 100 µM (inactive) | > 100 µM (inactive) | > 100 µM (inactive)
COc1ccc(C[C@@H](CO)NC2=C(C#N)CCC2)cc1 | 33.4 µM (inactive) | 26.9 µM (inactive) | 56.5 µM (inactive) | 49.9 µM (inactive) | 36.8 µM (inactive) | 43.7 µM (inactive) | – | 30.4 µM (inactive) | 86.7 µM (inactive) | 15.1 µM (inactive) | 11 µM (inactive) | 33.4 µM (inactive) | 64.1 µM (inactive) | 48 µM (inactive) | 49.2 µM (inactive) | 74.1 µM (inactive) | 64.4 µM (inactive) | 48.6 µM (inactive) | 22.2 µM (inactive)
O=C([C@H](O)[C@@H](O)c1ccc(Br)cc1)C12CC3CC(CC(C3)C1)C2 | 12.7 µM (inactive) | 7.31 µM (inactive) | 7.6 µM (inactive) | 16.3 µM (inactive) | 9.25 µM (inactive) | > 20.2 µM (inactive) | 34.8 µM (inactive) | 8.73 µM (inactive) | 9.38 µM (inactive) | 10.5 µM (inactive) | – | 31.5 µM (inactive) | 9.53 µM (inactive) | 11.6 µM (inactive) | – | 24.7 µM (inactive) | 42.8 µM (inactive) | 52.7 µM (inactive) | 2.93 µM (inactive)
C1=C2SSC3=CC=C(SSc4ccc(s4)SSC4=CC=C(SSC(=C1)S2)S4)S3 | > 100 µM (inactive) | > 100 µM (inactive) | > 100 µM (inactive) | > 100 µM (inactive) | > 100 µM (inactive) | > 100 µM (inactive) | > 100 µM (inactive) | > 100 µM (inactive) | > 100 µM (inactive) | > 100 µM (inactive) | – | > 100 µM (inactive) | > 100 µM (inactive) | > 100 µM (inactive) | > 100 µM (inactive) | > 100 µM (inactive) | > 100 µM (inactive) | > 100 µM (inactive) | > 100 µM (inactive)
Cc1ccc(OC2CC(n3cnc4c(=O)[nH]c(Br)nc43)OC2Oc2ccc(C)cc2)cc1 (centres undefined) | 28.6 µM (inactive) | 23.5 µM (inactive) | 24.1 µM (inactive) | 19.8 µM (inactive) | 18.5 µM (inactive) | 31 µM (inactive) | 18.1 µM (inactive) | 26.9 µM (inactive) | 22.7 µM (inactive) | 23 µM (inactive) | 30.3 µM (inactive) | 17.1 µM (inactive) | 26.3 µM (inactive) | 24 µM (inactive) | 44.4 µM (inactive) | – | 25.3 µM (inactive) | 22.5 µM (inactive) | –
ClCCN1CCC2(CC1)SSC1(CCN(CCCl)CC1)S2 | 48 µM (inactive) | 11.6 µM (inactive) | > 100 µM (inactive) | 40.5 µM (inactive) | 19.7 µM (inactive) | 15.8 µM (inactive) | 7.74 µM (inactive) | 35.8 µM (inactive) | 89.9 µM (inactive) | 57.5 µM (inactive) | 30.7 µM (inactive) | 37.8 µM (inactive) | 36.7 µM (inactive) | 73.6 µM (inactive) | 76.6 µM (inactive) | > 100 µM (inactive) | > 100 µM (inactive) | – | 59.3 µM (inactive)
c1ccc([I+]c2ccccc2)cc1 | > 100 µM (inactive) | > 100 µM (inactive) | > 100 µM (inactive) | > 100 µM (inactive) | > 100 µM (inactive) | > 100 µM (inactive) | > 100 µM (inactive) | > 100 µM (inactive) | > 100 µM (inactive) | > 100 µM (inactive) | > 100 µM (inactive) | > 100 µM (inactive) | > 100 µM (inactive) | > 100 µM (inactive) | > 100 µM (inactive) | > 100 µM (inactive) | > 100 µM (inactive) | > 100 µM (inactive) | –
COc1cccc(N2C(=O)/C(=C\c3ccccc3)SC2c2cc(OC)c(OC)c(OC)c2)c1 (centres undefined) | 45.2 µM (inactive) | 42.4 µM (inactive) | 37.6 µM (inactive) | > 100 µM (inactive) | – | 39.7 µM (inactive) | 26.3 µM (inactive) | 47.9 µM (inactive) | 64.1 µM (inactive) | 98.2 µM (inactive) | 36 µM (inactive) | 26.9 µM (inactive) | 40.9 µM (inactive) | 22.6 µM (inactive) | – | 96.2 µM (inactive) | 44.1 µM (inactive) | – | 18 µM (inactive)
COc1ccc2c(c1)CCN=C2c1ccccc1CCCCl | 13.6 µM (inactive) | 23.1 µM (inactive) | 28.6 µM (inactive) | 24.3 µM (inactive) | 46.1 µM (inactive) | 11 µM (inactive) | – | 38.5 µM (inactive) | 24.2 µM (inactive) | 19 µM (inactive) | 11.4 µM (inactive) | 5.62 µM (inactive) | 38.4 µM (inactive) | 38.7 µM (inactive) | > 100 µM (inactive) | > 100 µM (inactive) | 16.8 µM (inactive) | 22.6 µM (inactive) | 17.3 µM (inactive)
Cc1ccc2nc(-n3c(/C=C/c4ccccc4O)nc4ccccc4c3=O)sc2c1 | > 100 µM (inactive) | > 100 µM (inactive) | > 100 µM (inactive) | > 100 µM (inactive) | > 100 µM (inactive) | > 100 µM (inactive) | – | > 100 µM (inactive) | > 100 µM (inactive) | > 100 µM (inactive) | > 100 µM (inactive) | > 100 µM (inactive) | > 100 µM (inactive) | > 100 µM (inactive) | > 100 µM (inactive) | > 100 µM (inactive) | > 100 µM (inactive) | > 100 µM (inactive) | > 100 µM (inactive)
COc1cc2c(cc1O)C(c1cc(O)c(O)c(OC)c1)C(O)(C(=O)O)C(CO)C2O (centres undefined) | > 100 µM (inactive) | 20.9 µM (inactive) | > 100 µM (inactive) | > 100 µM (inactive) | > 100 µM (inactive) | > 100 µM (inactive) | 66.4 µM (inactive) | > 100 µM (inactive) | > 100 µM (inactive) | 40.8 µM (inactive) | – | 47 µM (inactive) | 16.1 µM (inactive) | 17.6 µM (inactive) | 26 µM (inactive) | > 100 µM (inactive) | > 100 µM (inactive) | > 100 µM (inactive) | > 100 µM (inactive)
CCCCN(Cc1ccccc1)/C(=N/C#N)N(Cc1ccccc1)Cc1ccccc1 | 10.9 µM (inactive) | 16.1 µM (inactive) | 26.1 µM (inactive) | 12.1 µM (inactive) | 4.3 µM (inactive) | 15.7 µM (inactive) | – | 19.2 µM (inactive) | 13.4 µM (inactive) | 18.7 µM (inactive) | 36.6 µM (inactive) | 14 µM (inactive) | 17.1 µM (inactive) | 15.7 µM (inactive) | 24.1 µM (inactive) | 29 µM (inactive) | 27.9 µM (inactive) | 17.3 µM (inactive) | 21.1 µM (inactive)
